For one data set, the system named is fish. To be noted: in vivo; cited from earlier work.
In a further data set the test system is elasmobranch fishes. Kind of data set: anesthesia of elasmobranch fishes by immersion. Type of data set: in vivo, spiny dogfish Squalus acanthias. Conditions: 400-600 mg/L carvone alone, oil-in-water emulsion. The text has this: 3. […] For examples spiny dogfish Squalus acanthias can be anesthetized by immersion.

Structures are written as SMILES.

The values that follow come from patent US20110212196A1, “THERAPEUTIC OIL COMPOSITION CONTAINING CARVONE” (MAINE CONSERVATION MEDICINE CENTER, priority 2010, published 2011).

`O=C=O` [carbon dioxide]: the safety during anesthesia/euthanasia result in the data set with fish is “Some fish died during anesthesia”. Consider `C=C(C)C1CC=C(C)C(=O)C1` (centres unmarked) [carvone], for which the anesthesia entry with elasmobranch fishes was “will anesthetize”.
